{"source": "patent US4883807A", "about": "“1,2,5,6-tetrahydropyridyl triazoles and tetrazoles useful as fungicides” (Imperial Chemical Industries PLC, priority 1986, dated 1989)", "key": {"Phytophthora infestans": {"test_system": "Phytophthora infestans", "assay_type": "in vivo", "details": "100 ppm foliar spray plus root drench ca. 40 ppm a.i./dry soil, one or two days before inoculation"}, "Plasmopara viticola": {"test_system": "Plasmopara viticola", "experiment": "foliar fungal disease control on plants, Plasmopara viticola on vine", "assay_type": "in vivo", "details": "100 ppm foliar spray plus root drench ca. 40 ppm a.i./dry soil, one or two days before inoculation", "description": "(§1) The technique employed was as follows.\n(§2) The plants were grown in John Innes Potting Compost (No. 1 or 2) in 4 cm diameter minipots. The test compounds were formulated either by bead milling with aqueous Dispersol T or as a solution in acetone or acetone/ethanol which was diluted to the required concentration immediately before use. For the foliage diseases, the formulations (100 ppm active ingredient) were sprayed on to the foliage and applied to the roots of the plants in the soil. The sprays were applied to maximum retention and the root drenches to a final concentration equivalent to approximately 40 ppm a.i./dry soil. Tween 20, to give a final concentration of 0.05%, was added when the sprays were applied to cereals.\n(§3) For most of the tests the compound was applied to the soil (roots) and to the foliage (by spraying) one or two days before the plant was inoculated with the disease. An exception was the test on Erysiphe graminis in which the plants were inoculated 24 hours before treatment. Foliar pathogens were applied by spray as spore suspensions onto the leaves of test plants. After inoculation, the plants were put into an appropriate environment to allow infection to proceed and then incubated until the disease was ready for assessment. The period between inoculation and assessment varied from four to fourteen days according to the disease and environment.\n(§4) The disease control was recorded by the following grading: […]"}, "Pyricularia oryzae": {"test_system": "Pyricularia oryzae", "assay_type": "in vivo", "details": "100 ppm foliar spray plus root drench ca. 40 ppm a.i./dry soil, one or two days before inoculation"}, "Erysiphe graminis": {"test_system": "Erysiphe graminis", "experiment": "foliar fungal disease control on plants, Erysiphe graminis on barley", "assay_type": "in vivo", "details": "100 ppm foliar spray plus root drench ca. 40 ppm a.i./dry soil; inoculated 24 hours before treatment", "description": "as §1, §2, §3, §4"}, "Cercospora arachidicola": {"test_system": "Cercospora arachidicola", "experiment": "foliar fungal disease control on plants, Cercospora arachidicola on peanut", "assay_type": "in vivo", "details": "100 ppm foliar spray plus root drench ca. 40 ppm a.i./dry soil, one or two days before inoculation", "description": "as §1, §2, §3, §4"}, "Venturia inaequalis": {"test_system": "Venturia inaequalis", "experiment": "foliar fungal disease control on plants, Venturia inaequalis on apple", "assay_type": "in vivo", "details": "100 ppm foliar spray plus root drench ca. 40 ppm a.i./dry soil, one or two days before inoculation", "description": "as §1, §2, §3, §4"}, "Puccinia recondita": {"test_system": "Puccinia recondita", "experiment": "foliar fungal disease control on plants, Puccinia recondita on wheat", "assay_type": "in vivo", "details": "100 ppm foliar spray plus root drench ca. 40 ppm a.i./dry soil, one or two days before inoculation", "description": "as §1, §2, §3, §4"}, "Musca domestica": {"test_system": "Musca domestica", "experiment": "whole plant or invertebrate", "details": "24 h, read-out: grading of mortality, MD"}, "[1]": {"test_system": "Tetranychus urticae (spider mites - adult)", "experiment": "whole plant or invertebrate", "details": "in Phaseolus vulgaris, 72 h, read-out: grading of mortality, TUa"}, "Spodoptera exigua": {"test_system": "Spodoptera exigua", "experiment": "whole plant or invertebrate", "details": "in Gossypium hirsutum, 72 h, read-out: grading of mortality, SP"}, "Nilaparvata lugens": {"test_system": "Nilaparvata lugens", "experiment": "whole plant or invertebrate", "details": "in Oryza sativa, 72 h, read-out: grading of mortality, NL"}, "Myzus persicae": {"test_system": "Myzus persicae", "experiment": "whole plant or invertebrate", "details": "in Brassica rapa, 72 h, read-out: grading of mortality, MP"}, "Diabrotica balteata": {"test_system": "Diabrotica balteata", "experiment": "whole plant or invertebrate", "details": "in Zea mays, 72 h, read-out: grading of mortality, DB"}, "Heliothis virescens": {"test_system": "Heliothis virescens", "experiment": "insecticidal test, tobacco budworm - larvae", "assay_type": "in vivo", "details": "in Gossypium hirsutum, 72 h, read-out: grading of mortality, HV", "description": "(§5) The activity of the compounds was determined using a variety of insect, mite and nematode pests. The compounds were used in the form of liquid preparations containing 500 parts per million (ppm) by weight of the compound except for the test on Meloidogyne incognita when liquid preparations of 250 ppm by weight were used. The preparations were made by dissolving the compounds in acetone and diluting the solutions with water containing 0.1% by weight of a wetting agent sold under the trade name \"SYNPERONIC\" NX until the liquid preparations contained the required concentration of the product. \"SYNPERONIC\" is a Registered Trade Mark.\n(§6) The test procedure adopted with regard to each pest was basically the same and comprised supporting a number of the pests on a medium which was usually a host plant or a foodstuff on which the pests feed, and treating either or both the pests and the medium with the preparations. The mortality of the pests was then assessed at periods usually varying from one to seven days after the treatment.\n(§7) The results of the tests are given in Table IX for each of the products as a grading of mortality designated as 9, 5 or 0 where 9 indicates 80-100% mortality (70-100% root-knot reduction as compared with untreated plants for Meloidogyne incognita), 5 indicates 50-79% mortality (50-69% root knot reduction for Meloidogyne incognita) and 0 indicates less than 50% mortality (root-knot reduction for Meloidogyne incognita).\n(§8) In Table IX the pest organism used in designated by a letter code and the pests species, the support medium or food, and the type and duration of test is given in Table VII."}, "Blattella germanica": {"test_system": "Blattella germanica", "experiment": "whole plant or invertebrate", "details": "72 h, read-out: grading of mortality, BG"}, "[2]": {"test_system": "Tetranyhus urticae (spider mites - ova)", "experiment": "whole plant or invertebrate", "details": "144 h, read-out: grading of mortality, TUe"}, "Meloidogyne incognita": {"test_system": "Meloidogyne incognita", "experiment": "nematode test, tomato root knot eelworm - larvae, semi in-vitro", "assay_type": "in vivo", "details": "250 ppm, residual, 7 days", "description": "as §5, §6, §7, §8"}}}
{"compound": "CCOC(=O)/C=C/c1cccn1/C(=C\\OC)C(=O)OC", "note": "[(Z)-methyl 3-methoxy-2-[2-(E-2-carbethoxyethenyl)pyrrol-1-yl]acrylate]", "values": [{"measurement": "disease control grading, PH[…] (TOMATOES)", "setting": "Phytophthora infestans", "result": 4}, {"measurement": "disease control grading, […] (Vine)", "setting": "Plasmopara viticola", "result": 4}, {"measurement": "disease control grading, P[…] (Rice)", "setting": "Pyricularia oryzae", "result": 4}, {"measurement": "disease control grading, ERYSIPHE GRAMINIS (Barley)", "setting": "Erysiphe graminis", "result": "0 (60-100% of disease on untreated plants)"}, {"measurement": "disease control grading, CERCOSPCRA ARACHIDICOLA (Peanut)", "setting": "Cercospora arachidicola", "result": 4}, {"measurement": "disease control grading, VENTURIA INAEQUALIS (Apple)", "setting": "Venturia inaequalis", "result": 4}, {"measurement": "disease control grading, PUCCINIA RECONDITA (Wheat)", "setting": "Puccinia recondita", "result": 4}]}
{"compound": "C=CCO/N=C\\c1cccn1/C(=C\\OC)C(=O)OC", "note": "[Compound 4 of Table I]", "values": [{"measurement": "disease control grading, PH[…] (TOMATOES)", "setting": "Phytophthora infestans", "result": 4}, {"measurement": "disease control grading, […] (Vine)", "setting": "Plasmopara viticola", "result": 4}, {"measurement": "disease control grading, P[…] (Rice)", "setting": "Pyricularia oryzae", "result": 4}, {"measurement": "disease control grading, ERYSIPHE GRAMINIS (Barley)", "setting": "Erysiphe graminis", "result": 4}, {"measurement": "disease control grading, CERCOSPCRA ARACHIDICOLA (Peanut)", "setting": "Cercospora arachidicola", "result": 4}, {"measurement": "disease control grading, VENTURIA INAEQUALIS (Apple)", "setting": "Venturia inaequalis", "result": 4}, {"measurement": "disease control grading, PUCCINIA RECONDITA (Wheat)", "setting": "Puccinia recondita", "result": 4}]}
{"compound": "CO/C=C(/C(=O)OC)n1cccc1/C=N/OC", "note": "[Compound 1 of Table I]", "values": [{"measurement": "disease control grading, PH[…] (TOMATOES)", "setting": "Phytophthora infestans", "result": "3 (trace - 5% of disease on untreated plants)"}, {"measurement": "disease control grading, […] (Vine)", "setting": "Plasmopara viticola", "result": 4}, {"measurement": "disease control grading, P[…] (Rice)", "setting": "Pyricularia oryzae", "result": 4}, {"measurement": "disease control grading, ERYSIPHE GRAMINIS (Barley)", "setting": "Erysiphe graminis", "result": 4}, {"measurement": "disease control grading, CERCOSPCRA ARACHIDICOLA (Peanut)", "setting": "Cercospora arachidicola", "result": 4}, {"measurement": "disease control grading, VENTURIA INAEQUALIS (Apple)", "setting": "Venturia inaequalis", "result": 4}, {"measurement": "disease control grading, PUCCINIA RECONDITA (Wheat)", "setting": "Puccinia recondita", "result": 4}]}
{"compound": "CO/C=C(/C(=O)OC)n1cccc1/C=N\\OC", "note": "[Compound 2 of Table I]", "values": [{"measurement": "mortality at 500 ppm", "setting": "Musca domestica", "result": "< 50", "unit": "%"}, {"measurement": "mortality at 500 ppm", "setting": "[1]", "result": "80 to 100", "unit": "%"}, {"measurement": "mortality at 500 ppm", "setting": "Spodoptera exigua", "result": "< 50", "unit": "%"}, {"measurement": "disease control grading, PH[…] (TOMATOES)", "setting": "Phytophthora infestans", "result": "0 (60-100% of disease on untreated plants)"}, {"measurement": "mortality at 500 ppm", "setting": "Nilaparvata lugens", "result": "< 50", "unit": "%"}, {"measurement": "disease control grading, […] (Vine)", "setting": "Plasmopara viticola", "result": 4}, {"measurement": "disease control grading, P[…] (Rice)", "setting": "Pyricularia oryzae", "result": "3 (trace - 5% of disease on untreated plants)"}, {"measurement": "mortality at 500 ppm", "setting": "Myzus persicae", "result": "80 to 100", "unit": "%"}, {"measurement": "mortality at 500 ppm", "setting": "Diabrotica balteata", "result": "50 to 79", "unit": "%"}, {"measurement": "disease control grading, ERYSIPHE GRAMINIS (Barley)", "setting": "Erysiphe graminis", "result": 4}, {"measurement": "mortality at 500 ppm", "setting": "Heliothis virescens", "result": "< 50", "unit": "%"}, {"measurement": "mortality at 500 ppm", "setting": "Blattella germanica", "result": "< 50", "unit": "%"}, {"measurement": "disease control grading, CERCOSPCRA ARACHIDICOLA (Peanut)", "setting": "Cercospora arachidicola", "result": 4}, {"measurement": "mortality at 500 ppm", "setting": "[2]", "result": "< 50", "unit": "%"}, {"measurement": "disease control grading, VENTURIA INAEQUALIS (Apple)", "setting": "Venturia inaequalis", "result": 4}, {"measurement": "grading of root-knot reduction, MI", "setting": "Meloidogyne incognita", "result": "0 (less than 50% mortality (root-knot reduction for Meloidogyne incognita))"}, {"measurement": "disease control grading, PUCCINIA RECONDITA (Wheat)", "setting": "Puccinia recondita", "result": 4}]}
{"compound": "CO/C=C(/C(=O)OC)n1cccc1CN1CCOCC1", "note": "[Compound 5 of Table II]", "values": [{"measurement": "disease control grading, PH[…] (TOMATOES)", "setting": "Phytophthora infestans", "result": "0 (60-100% of disease on untreated plants)"}, {"measurement": "disease control grading, […] (Vine)", "setting": "Plasmopara viticola", "result": "0 (60-100% of disease on untreated plants)"}, {"measurement": "disease control grading, P[…] (Rice)", "setting": "Pyricularia oryzae", "result": "0 (60-100% of disease on untreated plants)"}, {"measurement": "disease control grading, ERYSIPHE GRAMINIS (Barley)", "setting": "Erysiphe graminis", "result": "2 (6-25% of disease on untreated plants)"}, {"measurement": "disease control grading, CERCOSPCRA ARACHIDICOLA (Peanut)", "setting": "Cercospora arachidicola", "result": 4}, {"measurement": "disease control grading, VENTURIA INAEQUALIS (Apple)", "setting": "Venturia inaequalis", "result": 4}, {"measurement": "disease control grading, PUCCINIA RECONDITA (Wheat)", "setting": "Puccinia recondita", "result": "2 (6-25% of disease on untreated plants)"}]}
